Assay results reported in paper PMC9021288 (Nature Communications, 2022).
Several values for one entry are separate records, joined by “and”; a condition that tells them apart may be missing. Identical values can stand only once.

What was measured:
[1] = system: P. falciparum Pf3D7^0087/N9; experiment: Single dose in vivo efficacy in humanized NSG mice; design: species or system Plasmodium falciparum
Experimental: The effect of pantothenamides on P. falciparum Pf3D7^0087/N9 [66] in vivo was assessed in female NSG mice (NODscidIL2Rγ^null) at the Swiss Tropical and Public Health Institute (Basel, Switzerland) as described previously (Supplementary Table 30)[15],[67]. Briefly, humanized mice were engrafted daily with human erythrocyte suspensions from days -11 to day 6. […] On day 4, groups of n = 2 mice were treated with a single dose pantothenamides or chloroquine (50 mg/kg) by oral gavage. […] Serial dilutions were prepared in the same solvent to concentrations 50 times higher than the corresponding CAL and QC concentrations. The concentrations were calculated under consideration of purity and salt factor. The spiking of the CAL and QC sample were performed at room temperature.

[2] = Blood concentration and PK in infected NSG mice after single oral dose; type: in vivo, mouse; settings: for concentration in blood: per mouse
Experimental: The effect of pantothenamides on P. falciparum Pf3D7^0087/N9 [66] in vivo was assessed in female NSG mice (NODscidIL2Rγ^null) at the Swiss Tropical and Public Health Institute (Basel, Switzerland) as described previously (Supplementary Table 30)[15],[67]. Briefly, humanized mice were engrafted daily with human erythrocyte suspensions from days -11 to day 6. After 11 days (day 0), mice were injected intravenously with 3×10^7 infected RBCs in a volume of 0.1 ml. On day 4, groups of n = 2 mice were treated with a single dose pantothenamides or chloroquine (50 mg/kg) by oral gavage. The hematocrit of all dosed mice and an untreated control group (n = 4 mice) was determined by fluorescence-activated cell sorting and parasitemia was analyzed by microscopy on >10,000 RBCs as described before. Samples to quantify compound metabolites were collected and prepared at different time points (1, 2, 4, 6, and 24 h after treatment) for each mouse by mixing 20 µl of whole blood with 20 µl of Milli-Q, followed by immediate freezing of samples on dry ice. […] Serial dilutions were prepared in the same solvent to concentrations 50 times higher than the corresponding CAL and QC concentrations. The concentrations were calculated under consideration of purity and salt factor. The spiking of the CAL and QC sample were performed at room temperature. The eight calibration levels were 5.00, 10.0, 50.0, 100, 500, 1000, 3750, and 5000 ng/mL and three QC levels 15.0, 100, and 3750 ng/mL were analyzed in duplicate, together with the study samples.
For the sample precipitation, to an aliquot of 10 µL mouse blood/water (1/1) study sample, 20 µL of acetonitrile containing the internal standard MMV1542001 at a concentration of 100 ng/mL was added. After vortex mixing, the samples were centrifuged for 10 min at 50,000 g at 8 °C. Subsequently, an aliquot of 20 µL of the supernatant was transferred to an autosampler vial and an aliquot of 5 µL was injected onto the LC-MS/MS system.
The samples were handled by an autosampler CTC PAL (CTC Analytics AG, Zwingen, Switzerland) set at 8 °C. The chromatography column used was a YMC Hydrosphere C18, 2.1 × 33 mm, 3 µm (YMC Co. Ltd., Kyoto, Japan), kept at room temperature. The aqueous mobile phase consisted of water containing 0.1 % formic acid, whereas the organic mobile phase consisted of acetonitrile containing 0.1 % formic acid, pumped by HPLC pump from Agilent 1200 series (Agilent Technologies Inc, Santa Clara, CA, USA). The HPLC gradient was as follows: 95% phase A, 5% phase B for 0.20 min, followed by transition to 5% phase A, 95% phase B in 1 min, 2 min at these concentrations, and a subsequent increase to 95% phase A, 5% phase B in 0.05 min which is kept for the remaining 0.75 min.
The detection of MMV693183 was performed using a TSQ Access mass spectrometer (Thermo Fisher Scientific, San Jose, CA, USA) by selected reaction monitoring. The ion source was heated electrospray ionization, using a negative polarity. Following parameters were used: Voltage 2500 [V], Vaporizer temperature 350 [°C], Sheath gas 60 [au], Auxiliary gas 5 [au], Capillary temperature 350 [°C] and Collision gas pressure 1.0 [mTorr]. […] The transition used for the internal standard was: parent ion 325.030 m/z—daughter ion 195.000 m/z.
The concentration of the analyte was calculated using the internal standardization method. The area ratio of analyte to internal standard against the concentration of calibration samples was used for quantification. The acquisition and processing of data were performed using LCquan 2.5.6 and Xcalibur 2.0.7. Microsoft Office Excel 2007 Prof was used for calculations and statistical evaluation of data. […] The Lower Limit of Quantification was 5.00 ng/mL in […], whereas The Upper Limit of Quantification was 5000 ng/mL in mouse blood/water (1/1).

[3] = system: P. falciparum NF54-HGL gametocytes; experiment: Gametocyte viability assay (72 h, luminescence); type: cell-based, Plasmodium falciparum
Experimental: Gametocyte viability assays on NF54-HGL parasites were performed using an adapted high-throughput protocol as previously described[15],[64]. In short, asexual blood-stage parasite cultures were set up at 1% parasitemia in a semi-automated shaker system at 5% hematocrit. From day four until day eight or nine, parasites were treated with 50 mM N-acetyl glucosamine to eliminate all asexual blood-stage parasites. Subsequently, gametocytes were isolated by a Percoll density gradient centrifugation. At day 11, gametocytes were seeded (5,000 per well) in 30 µl in white 384-well plates containing 30 µl of compounds diluted in medium (0.1% DMSO). After a 72-h incubation, 30 µl of ONE-Glo reagent (Promega) was added according to manufacturer’s protocol and luminescence was quantified using the BioTek Synergy 2 Plate reader. Values were normalized to DMSO- and epoxomicin or dihydroartemisinin-treated controls.

Q: Which results are given for CC(C)(CO)[C@@H](O)C(=O)NCCNC(=O)c1cc(C#N)ccc1F [MMV976394]?
A: Parasitemia ([1]; day 5 post infection, 50 mg/kg p.o. on day 4, per mouse, 50 mg/kg): 0.56 and 0.41; Parasitemia ([1]; day 6 post infection, per mouse): 0.32; Parasitemia ([1]; day 7 post infection, per mouse): 0.17; parasitemia outcome ([1]; single 50 mg/kg oral gavage on day 4, over three days): not fully cleared; AUC0-24h ([2]; 50 mg/kg p.o.): 10800 ng·h/mL; Cmax ([2]; 50 mg/kg p.o.): 5810 ng/mL; T1/2 ([2]; 50 mg/kg p.o.): 2.95 h; Tmax ([2]; 50 mg/kg p.o.): 1.00 h; concentration in blood ([2]; 1 h post treatment): 6840 ng/mL and 4780 ng/mL; concentration in blood ([2]; 2 h post treatment): 1230 ng/mL and 1500 ng/mL; concentration in blood ([2]; 4 h post treatment): 450 ng/mL and 356 ng/mL; concentration in blood ([2]; 6 h post treatment): 204 ng/mL and 214 ng/mL; concentration in blood ([2]; 24 h post treatment): 10 ng/mL; Sexual blood stages viability, dose-response ([3]; Log concentration (M) -6): 82.2 and 80.4; Sexual blood stages viability, dose-response ([3]; Log concentration (M) -6.5): 89.6 and 82.4; Sexual blood stages viability, dose-response ([3]; Log concentration (M) -7): 87.4 and 85.95; Sexual blood stages viability, dose-response ([3]; Log concentration (M) -7.5): 108.15 and 96.65; Sexual blood stages viability, dose-response ([3]; Log concentration (M) -8): 91.85 and 97.6; Sexual blood stages viability, dose-response ([3]; Log concentration (M) -8.5): 92.6 and 88; Sexual blood stages viability, dose-response ([3]; Log concentration (M) -9): 87.75 and 103.75; Sexual blood stages viability, dose-response ([3]; Log concentration (M) -9.5): 90 and 115.4; Sexual blood stages viability, dose-response ([3]; Log concentration (M) -10): 90 and 95.6
